“And” between values parts separate entries of the source, which are not always exact repeats. Equal entries are not always repeated. Where two headings read alike, the source gives them in different places.
Tests used:
Lactobacillus Brevis = details: contact time 300 s, cited from earlier work
Menidia beryllina = assay: 96-hour bioassay of ClO2 treated side stream effluent, Independent Bioassay Laboratory A, silverside minnow; type: in vivo; details: end of 96-hour test period; ClO2 treated side stream effluent grabs Sep. 3, 2001 12:00, 18:00, 24:00, Sep. 4, 2001 06:00
Source text: (§1) Mysidopsis bahia (Mysids) and Menidia beryllina (Silversides) were subjected to ClO2 treated effluent in these tests. Adequate volumes of chemical were brought to the site to conduct a dosing of the side stream for a 24-hour period. During this period, 2 gallons of treated water were taken at 6-hour intervals, preserved on ice and shipped to an independent bioassay laboratory (designated Independent Bioassay Laboratory A).
(§2) Table 3(c) illustrates the survivability of the organisms at the 96-hour end-point in the test for each of the 4 samples taken (samples indicated by date and time each sample was taken.).

Mysidopsis bahia = assay: 96-hour bioassay of ClO2 treated side stream effluent, Independent Bioassay Laboratory A, mysid shrimp; type: in vivo; details: end of 96-hour test period; ClO2 treated side stream effluent grabs Sep. 3, 2001 12:00, 18:00, 24:00, Sep. 4, 2001 06:00
Source text: as §1, §2

[1] = test system: Penicillum expansum (mould); details: cited from earlier work
Streptococcus = details: 1 ppm of ClO2; contact time 15 s; cited from earlier work
M. bahia = assay: Bioassay of ClO2 treated WWTP 2 effluent by Laboratory 4, mysid shrimp; type: in vivo, Mysidopsis bahia; details: grabs Aug. 28, 2002 10:15, 16:00, 22:00, Aug. 29, 2002 09:30
Source text: With the success of the above bioassay series that began on Aug. 20, 2002, it was concluded that a third party test was needed to verify research data. Water grabs from the Anastasia Island Treatment Facility, taken on Aug. 28, 2002, were delivered to Laboratory 4, an independent bioassay laboratory. Additional testing of the water sent to Laboratory 4 labs was also forwarded to another contract lab to document the water quality during the sample periods for the bioassays. It should be noted here that the plant was operating under their normal operating conditions and accepting both landfill leachate as well as septic tank and portable toilet waste. These were however pumped into a storage tank and then trickled into the influent stream at the headworks.
The complete toxicological study as reference is included as attachment at the end of this study.
With the successful bioassay conducted by the Laboratory 4 labs, a second series of water samples was taken for the repeat bioassay. These samples were taken on Sep. 11, 2002 and forwarded to Laboratory 4 labs on Sep. 12, 2002 to conduct the bioassay. The results of this test for both the water quality toxicity and the bioassay are illustrated in the Tables 13, 14 and 15.
The complete toxicological results are provided at the end of this study as attachments.

Staphylococcus aureus = details: 1 ppm of ClO2; contact time 60 s; cited from earlier work

For Chlorine dioxide [ClO2], the Inactivation in % (Lactobacillus Brevis; 0.15 ppm of ClO2) is listed as 99.9%, the Inactivation in % (Lactobacillus Brevis; 1 ppm of ClO2) is listed as >99.999% and the “Percent Survival m. beryllina” value (Menidia beryllina) is listed as 95% and 100%. The “Percent Survival Mysid bahia” value (Mysidopsis bahia) was 0%, the Inactivation in % ([1]; 0.5 ppm of ClO2, contact time 60 min) was 99.99% and the Inactivation in % ([1]; 2 ppm of ClO2, contact time 20 min) was 99.999%. For the same substance, the Inactivation in % (Streptococcus) was >99.999%, the “Sample survival % of M. bahia” value (M. bahia; 6.25 % Effluent) was 100% and the “Sample survival % of M. bahia” value (M. bahia; 12.5 % Effluent) was 95% and 100%. For the same substance, the “Sample survival % of M. bahia” value (M. bahia; 25 % Effluent) was 100%, the “Sample survival % of M. bahia” value (M. bahia; 50 % Effluent) was 95% and 100% and the “Sample survival % of M. bahia” value (M. bahia; 100 % Effluent) was 100%. The Inactivation in % (Staphylococcus aureus) was 99.999%.
